How the values were obtained:
Thymidylate synthase [1] = molecular target: T1, Thymidylate synthase (Mus musculus, UniProt P07607); experiment: Evaluated for the inhibition of thymidylate synthase in intact L1210 cells; format: cell-based
Thymidylate synthase [2] = molecular target: T2, Thymidylate synthase (Lactobacillus casei, UniProt P00469); experiment: Evaluated for the inhibition of thymidylate synthase in Lactobacillus casei; design: species or system Lacticaseibacillus casei
T2 sequence (P00469 whole entry): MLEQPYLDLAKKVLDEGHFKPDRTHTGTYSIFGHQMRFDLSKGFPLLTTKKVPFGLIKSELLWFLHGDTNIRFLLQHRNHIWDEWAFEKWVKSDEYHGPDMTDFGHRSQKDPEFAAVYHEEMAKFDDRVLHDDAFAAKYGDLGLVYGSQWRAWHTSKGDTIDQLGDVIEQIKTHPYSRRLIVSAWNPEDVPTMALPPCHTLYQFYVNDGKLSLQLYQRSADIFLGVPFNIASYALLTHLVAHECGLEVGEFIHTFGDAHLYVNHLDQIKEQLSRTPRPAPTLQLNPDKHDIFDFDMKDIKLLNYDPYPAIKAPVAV

Lacticaseibacillus casei [3] = experiment: Antimicrobial activity against Lactobacillus casei MTX-resistant strain; format: functional; design: unit not given here
Enterococcus faecium [4] = experiment: Antimicrobial activity against Streptococcus faecium strain, MTX-resistant; format: functional; design: unit not given here
[5] = tested on: Thymidylate synthase (Bos taurus); experiment: Inhibition of Calf thymus thymidylate synthase in the presence of 20 uM
Dihydrofolate reductase = Dihydrofolate reductase (Lactobacillus casei, UniProt P00381); experiment: Evaluated for the inhibition of dihydrofolate reductase in Lactobacillus casei; design: species or system Lacticaseibacillus casei
Enterococcus faecium [6] = experiment: Antimicrobial activity against Streptococcus faecium strain, ATCC 8043; format: functional
Lacticaseibacillus casei [7] = experiment: Antimicrobial activity against Lactobacillus casei strain ATCC 7469; format: functional; design: unit not given here
Thymidylate synthase [8] = molecular target: T1, Thymidylate synthase; experiment: Evaluated for the inhibition of thymidylate synthase in permeabilised L1210 cells; format: cell-based
[9] = molecular target: T3, Dihydropteroate synthase (Escherichia coli K-12) (UniProt P0AC13); experiment: Inhibition of E. uM; settings: concentration not given here
T3 sequence (whole entry): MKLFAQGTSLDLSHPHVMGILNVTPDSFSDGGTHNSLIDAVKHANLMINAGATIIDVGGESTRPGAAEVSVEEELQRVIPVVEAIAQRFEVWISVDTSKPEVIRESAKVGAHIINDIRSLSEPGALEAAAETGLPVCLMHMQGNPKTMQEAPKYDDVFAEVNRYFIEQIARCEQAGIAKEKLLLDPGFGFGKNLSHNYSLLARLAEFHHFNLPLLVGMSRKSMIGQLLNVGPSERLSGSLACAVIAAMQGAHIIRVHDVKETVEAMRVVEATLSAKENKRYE

Enterococcus faecium [10] = experiment: Antimicrobial activity against Streptococcus faecium strain ATCC 8043; format: functional; design: unit not given here

T1 sequence (P07607 whole entry): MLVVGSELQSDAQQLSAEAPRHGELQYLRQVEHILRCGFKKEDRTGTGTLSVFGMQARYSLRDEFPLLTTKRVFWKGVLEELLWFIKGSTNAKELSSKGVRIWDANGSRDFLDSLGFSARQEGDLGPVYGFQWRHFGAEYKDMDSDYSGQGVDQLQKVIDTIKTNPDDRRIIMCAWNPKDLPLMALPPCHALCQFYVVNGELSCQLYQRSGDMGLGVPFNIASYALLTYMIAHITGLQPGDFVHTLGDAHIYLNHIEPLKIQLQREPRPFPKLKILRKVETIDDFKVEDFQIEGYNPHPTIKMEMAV
Sequence of Dihydrofolate reductase (P00381 whole entry): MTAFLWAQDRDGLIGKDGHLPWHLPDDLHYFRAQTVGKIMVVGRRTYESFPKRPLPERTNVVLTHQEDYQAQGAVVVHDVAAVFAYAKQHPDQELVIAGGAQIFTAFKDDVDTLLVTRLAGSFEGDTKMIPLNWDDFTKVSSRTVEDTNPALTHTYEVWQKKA

Compound | IC50 (Thymidylate synthase [1]) | IC50 (Thymidylate synthase [2]) | Activity (Lacticaseibacillus casei [3]) | Activity (Enterococcus faecium [4]) | inhibition [5] | IC50 (Dihydrofolate reductase) | Activity (Enterococcus faecium [6]) | Activity (Lacticaseibacillus casei [7]) | IC50 (Thymidylate synthase [8]) | inhibition [9] | Activity (Enterococcus faecium [10])
C#CCN(CC1CCc2nc(N)nc(O)c2C1)c1ccc(C(=O)NC(CCC(=O)O)C(=O)O)cc1 (configuration not stated) | 1100 µM | 23 µM | >10000 | 350 | 50% | 10 µM | 1.8 | 4.7 | 11 µM | – | –
CN(CC1CCc2nc(N)nc(O)c2C1)c1ccc(C(=O)NC(CCC(=O)O)C(=O)O)cc1 (configuration not stated) | – | – | >20000 | 13 | – | – | 0.57 | 2.8 | – | 35.1% | –
C#CCN(Cc1ccc2[nH]c(N)nc(=O)c2c1)c1ccc(C(=O)NC(CCC(=O)O)C(=O)O)cc1 (configuration not stated) | – | – | 6400 | 20 | – | – | – | 0.4 | – | – | 0.13
Nc1nc(O)c2c(n1)CCC(CBr)C2 (configuration not stated) | – | – | – | – | – | – | – | – | – | 7% | –
CN(CC1CCc2nc(N)[nH]c(=O)c2C1)c1ccc(C(=O)NC(CCC(=O)O)C(=O)O)cc1 (configuration not stated) | – | 120 µM | – | – | – | 16 µM | – | – | – | – | –
Nc1nc(O)c2c(n1)CCC(CO)C2 (configuration not stated) | – | – | – | – | – | – | – | – | – | 1.3% | –
C#CCN(CC1CCc2nc(N)nc(O)c2C1)c1ccc(C(=O)O)cc1 (configuration not stated) | – | 610 µM | >20000 | 14000 | – | 190 µM | – | 1000 | – | – | 26
Nc1nc(O)c2c(n1)CCC(CNc1ccc(C(=O)O)cc1)C2 (configuration not stated) | – | > 200 µM | – | >20000 | – | > 200 µM | – | >20000 | – | – | 400
Nc1nc(O)c2c(n1)CCC(CNc1ccc(C(=O)NC(CCC(=O)O)C(=O)O)cc1)C2 (configuration not stated) | 1000 µM | > 280 µM | >20000 | 900 | – | 30 µM | 140 | 7.5 | 12 µM | – | –
CN(CC1CCc2nc(N)nc(O)c2C1)c1ccc(C(=O)O)cc1 (configuration not stated) | – | > 200 µM | >20000 | 8200 | – | > 200 µM | – | 15800 | – | – | 5.2

Reference: ChEMBL document CHEMBL1123906, “Folate analogues. 30. Synthesis and biological evaluation of N10-propargyl-5,8-dideaza-5,6,7,8-tetrahydrofolic acid and related compounds” (J Med Chem, 1987)
